The supplement of paper PMC10307832

Experiments:
Assay in all cases: relative viability (nuclei count vs DMSO), 5 days (fraction); higher = more cells survive
201T = tested on: 201T
Procedure, shortened: (§1)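 Lung cancer cell lines in 1536-well plates got either a single drug or a fixed anchor-drug dose together with five library-drug doses (not always all listed) in √10 steps, by pin tool, on the day after seeding. Nuclei were counted after 5 days, and relative viability is the treated-to-vehicle ratio of nuclei counts. Values are medians of duplicate plates.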

A-427 = tested on: A-427
Procedure, shortened: as §1

COR-L23 = tested on: COR-L23
Procedure, shortened: as §1

H3255 = tested on: H3255
Procedure, shortened: as §1

LCLC-103H = tested on: LCLC-103H
Procedure, shortened: as §1

LCLC-97TM1 = tested on: LCLC-97TM1
Procedure, shortened: as §1

LK-2 = tested on: LK-2
Procedure, shortened: as §1

LU99A = tested on: LU99A
Procedure, shortened: as §1

NCI-H1563 = tested on: NCI-H1563
Procedure, shortened: as §1

NCI-H1650 = tested on: NCI-H1650
Procedure, shortened: as §1

NCI-H1651 = tested on: NCI-H1651
Procedure, shortened: as §1

NCI-H1793 = tested on: NCI-H1793
Procedure, shortened: as §1

NCI-H1944 = tested on: NCI-H1944
Procedure, shortened: as §1

NCI-H2347 = tested on: NCI-H2347
Procedure, shortened: as §1

NCI-H23 = tested on: NCI-H23
Procedure, shortened: as §1

NCI-H460 = tested on: NCI-H460
Procedure, shortened: as §1

NCI-H650 = tested on: NCI-H650
Procedure, shortened: as §1

NCI-H727 = tested on: NCI-H727
Procedure, shortened: as §1

NCI-H838 = tested on: NCI-H838
Procedure, shortened: as §1

PC-14 = tested on: PC-14
Procedure, shortened: as §1

PC-3 [JPC-3] = tested on: PC-3 [JPC-3]
Procedure, shortened: as §1

RERF-LC-KJ = tested on: RERF-LC-KJ
Procedure, shortened: as §1

SW 1573 = tested on: SW 1573
Procedure, shortened: as §1

SW 900 = tested on: SW 900
Procedure, shortened: as §1

Clc1ccc(Nc2nnc(Cc3ccncc3)c3ccccc23)cc1 [Vatalanib] + N=C(N)NC(=N)NCCc1ccccc1 [Phenformin] (partner 250 µM)
relative viability (201T; first compound 0.04 µM): 0.436
relative viability (201T; first compound 0.1265 µM): 0.451
relative viability (201T; first compound 0.4 µM): 0.437
relative viability (201T; first compound 1.265 µM): 0.405
relative viability (201T; first compound 4 µM): 0.431
relative viability (A-427; first compound 0.04 µM): 0.427
relative viability (A-427; first compound 0.1265 µM): 0.295
relative viability (A-427; first compound 0.4 µM): 0.285
relative viability (A-427; first compound 1.265 µM): 0.31
relative viability (A-427; first compound 4 µM): 0.298
relative viability (COR-L23; first compound 0.04 µM): 0.442
relative viability (COR-L23; first compound 0.1265 µM): 0.43
relative viability (COR-L23; first compound 0.4 µM): 0.467
relative viability (COR-L23; first compound 1.265 µM): 0.389
relative viability (COR-L23; first compound 4 µM): 0.402
relative viability (H3255; first compound 0.04 µM): 0.397
relative viability (H3255; first compound 0.1265 µM): 0.392
relative viability (H3255; first compound 0.4 µM): 0.316
relative viability (H3255; first compound 1.265 µM): 0.368
relative viability (H3255; first compound 4 µM): 0.368
relative viability (LCLC-103H; first compound 0.04 µM): 0.339
relative viability (LCLC-103H; first compound 0.1265 µM): 0.306
relative viability (LCLC-103H; first compound 0.4 µM): 0.373
relative viability (LCLC-103H; first compound 1.265 µM): 0.363
relative viability (LCLC-103H; first compound 4 µM): 0.316
relative viability (LCLC-97TM1; first compound 0.04 µM): 0.417
relative viability (LCLC-97TM1; first compound 0.1265 µM): 0.388
relative viability (LCLC-97TM1; first compound 0.4 µM): 0.46
relative viability (LCLC-97TM1; first compound 1.265 µM): 0.407
relative viability (LCLC-97TM1; first compound 4 µM): 0.396
relative viability (LK-2; first compound 0.04 µM): 0.408
relative viability (LK-2; first compound 0.1265 µM): 0.398
relative viability (LK-2; first compound 0.4 µM): 0.381
relative viability (LK-2; first compound 1.265 µM): 0.466
relative viability (LK-2; first compound 4 µM): 0.393
relative viability (LU99A; first compound 0.04 µM): 0.839
relative viability (LU99A; first compound 0.1265 µM): 0.764
relative viability (LU99A; first compound 0.4 µM): 1.04
relative viability (LU99A; first compound 1.265 µM): 0.705
relative viability (LU99A; first compound 4 µM): 0.813
relative viability (NCI-H1563; first compound 0.04 µM): 0.641
relative viability (NCI-H1563; first compound 0.1265 µM): 0.673
relative viability (NCI-H1563; first compound 0.4 µM): 0.666
relative viability (NCI-H1563; first compound 1.265 µM): 0.712
relative viability (NCI-H1563; first compound 4 µM): 0.639
relative viability (NCI-H1650; first compound 0.04 µM): 0.401
relative viability (NCI-H1650; first compound 0.1265 µM): 0.307
relative viability (NCI-H1650; first compound 0.4 µM): 0.36
relative viability (NCI-H1650; first compound 1.265 µM): 0.364
relative viability (NCI-H1650; first compound 4 µM): 0.403
relative viability (NCI-H1651; first compound 0.04 µM): 0.342
relative viability (NCI-H1651; first compound 0.1265 µM): 0.29
relative viability (NCI-H1651; first compound 0.4 µM): 0.311
relative viability (NCI-H1651; first compound 1.265 µM): 0.312
relative viability (NCI-H1651; first compound 4 µM): 0.405
relative viability (NCI-H1793; first compound 0.04 µM): 0.354
relative viability (NCI-H1793; first compound 0.1265 µM): 0.341
relative viability (NCI-H1793; first compound 0.4 µM): 0.435
relative viability (NCI-H1793; first compound 1.265 µM): 0.295
relative viability (NCI-H1793; first compound 4 µM): 0.296
relative viability (NCI-H1944; first compound 0.04 µM): 0.221
relative viability (NCI-H1944; first compound 0.1265 µM): 0.198
relative viability (NCI-H1944; first compound 0.4 µM): 0.212
relative viability (NCI-H1944; first compound 1.265 µM): 0.188
relative viability (NCI-H1944; first compound 4 µM): 0.19
relative viability (NCI-H2347; first compound 0.04 µM): 0.323
relative viability (NCI-H2347; first compound 0.1265 µM): 0.426
relative viability (NCI-H2347; first compound 0.4 µM): 0.401
relative viability (NCI-H2347; first compound 1.265 µM): 0.266
relative viability (NCI-H2347; first compound 4 µM): 0.389
relative viability (NCI-H23; first compound 0.04 µM): 0.742
relative viability (NCI-H23; first compound 0.1265 µM): 0.719
relative viability (NCI-H23; first compound 0.4 µM): 0.78
relative viability (NCI-H23; first compound 1.265 µM): 0.714
relative viability (NCI-H23; first compound 4 µM): 0.748
relative viability (NCI-H460; first compound 0.04 µM): 0.582
relative viability (NCI-H460; first compound 0.1265 µM): 0.539
relative viability (NCI-H460; first compound 0.4 µM): 0.556
relative viability (NCI-H460; first compound 1.265 µM): 0.51
relative viability (NCI-H460; first compound 4 µM): 0.432
relative viability (NCI-H650; first compound 0.04 µM): 0.473
relative viability (NCI-H650; first compound 0.1265 µM): 0.427
relative viability (NCI-H650; first compound 1.265 µM): 0.446
relative viability (NCI-H650; first compound 4 µM): 0.439
relative viability (NCI-H727; first compound 0.04 µM): 0.531
relative viability (NCI-H727; first compound 0.1265 µM): 0.572
relative viability (NCI-H727; first compound 0.4 µM): 0.519
relative viability (NCI-H727; first compound 1.265 µM): 0.558
relative viability (NCI-H727; first compound 4 µM): 0.466
relative viability (NCI-H838; first compound 0.04 µM): 0.607
relative viability (NCI-H838; first compound 0.1265 µM): 0.476
relative viability (NCI-H838; first compound 0.4 µM): 0.69
relative viability (NCI-H838; first compound 1.265 µM): 0.563
relative viability (NCI-H838; first compound 4 µM): 0.548
relative viability (PC-14; first compound 0.04 µM): 0.552
relative viability (PC-14; first compound 0.1265 µM): 0.466
relative viability (PC-14; first compound 1.265 µM): 0.458
relative viability (PC-14; first compound 4 µM): 0.541
relative viability (PC-3 [JPC-3]; first compound 0.04 µM): 0.456
relative viability (PC-3 [JPC-3]; first compound 0.1265 µM): 0.465
relative viability (PC-3 [JPC-3]; first compound 0.4 µM): 0.456
relative viability (PC-3 [JPC-3]; first compound 1.265 µM): 0.493
relative viability (PC-3 [JPC-3]; first compound 4 µM): 0.508
relative viability (RERF-LC-KJ; first compound 0.04 µM): 0.479
relative viability (RERF-LC-KJ; first compound 0.1265 µM): 0.41
relative viability (RERF-LC-KJ; first compound 0.4 µM): 0.443
relative viability (RERF-LC-KJ; first compound 1.265 µM): 0.341
relative viability (RERF-LC-KJ; first compound 4 µM): 0.425
relative viability (SW 1573; first compound 0.04 µM): 0.402
relative viability (SW 1573; first compound 0.1265 µM): 0.374
relative viability (SW 1573; first compound 0.4 µM): 0.368
relative viability (SW 1573; first compound 1.265 µM): 0.324
relative viability (SW 1573; first compound 4 µM): 0.347
relative viability (SW 900; first compound 0.1265 µM): 0.689
relative viability (SW 900; first compound 0.4 µM): 0.539
relative viability (SW 900; first compound 1.265 µM): 0.458
relative viability (SW 900; first compound 4 µM): 0.544
